The nature of the assay: Inhibition of rabbit platelet PDE5 using [3H]cGMP as substrate after 30 mins by scintillation proximity assay. Details: species or system Oryctolagus cuniculus. (In general: Scintillation proximity formats need no separation of bound from free tracer.)

Structures are written as SMILES. pIC50: −log10 of the molar value.

Consider `CCCc1nn(C)c2c(=O)[nH]c(-c3cc(S(=O)(=O)N4CCN(C)CC4)ccc3OCC)nc12`, for which the pIC50 was 8.48.

`CCCOc1ccc(S(=O)(=O)N2CCN(C)CC2)cc1-c1nc(CC)cc(=O)[nH]1` showed a pIC50 of 7.29.

As for `CCCOc1ccc(S(=O)(=O)N2CCN(C)CC2)cc1-c1nc(CC)c(I)c(=O)[nH]1`, the pIC50 is 8.14. This pIC50 is 0.85 log units higher than that of the compound before.

What is called pIC50 is −log10 of the IC50, conventionally taken in molar units. Higher therefore signals a low IC50.

The values are drawn from ChEMBL document CHEMBL1914353, “Utilization of halogen bond in lead optimization: a case study of rational design of potent phosphodiesterase type 5 (PDE5) inhibitors” (J Med Chem, 2011).
